# Measurements published in PMC7168207, “Dibasic Derivatives of Phenylcarbamic Acid as Prospective Antibacterial Agents Interacting with Cytoplasmic Membrane” (Antibiotics, 2020).
# “And” between values parts separate entries of the source, which are not always exact repeats. Equal values may be shown once. Marks after values point to notes of the source that are not given here.
# What was measured:
# MRSA 63718 = assay: time-kill study; type: cell-based, Staphylococcus aureus; conditions: MRSA1
# Excerpt: (§1) Time-kill studies are used to evaluate the dynamics of antibacterial activity. As mentioned above, a pre-test to determine minimum bactericidal concentration (MBC) by sub-cultivation of aliquots on agar was made (see Section 3.4). […] Time-kill studies were made with methicillin-susceptible S. aureus ATCC 29213 and methicillin-resistant MRSA 63718, vancomycin-susceptible E. faecalis ATCC 29212, and all three VRE isolates. Vancomycin was used as a control (Table 6).
# (§2) The method of time-kill curves was used to study the bactericidal effect of selected compounds. […] The experiment was performed with S. aureus ATCC 29213, MRSA 63718, E. faecalis ATCC 29212, and all VRE isolates. […] The tubes were inoculated by bacterial inoculum in the exponential phase of growth to get a final concentration of 7.5 × 10^6 CFU/mL. The tubes were incubated statically at 37 °C. Immediately after inoculation and after 4, 6, 8, and 24 h, 100 µL of the sample was serially diluted (1:10) in PBS. Then, 2 × 20 µL from each dilution were put onto a Mueller–Hinton agar plate and cultivated at 37 °C for 24 h. After incubation, CFUs of dilutions containing 5–50 colonies were counted. Results were expressed as a decrease of log10(CFU) in each time compared to the starting inoculum. Bactericidal effect is defined as a −3log decrease of CFU/mL compared to the growth control in time 0. The test was made in duplicate on two separate occasions, and the results were averaged. The growth curves with error bars are shown in Figures S1 and S2 in Supplementary Materials.
# S. aureus ATCC 29213 = assay: time-kill study; type: cell-based, Staphylococcus aureus; conditions: SA
# Excerpt: as §1, §2
# [1] = test system: Candida albicans CCM 8261; assay: minimum fungistatic concentration, RPMI 1640; type: cell-based; conditions: CCM8261, CA = C albicans CCM 8261, 48 h
# How it was run: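 Broth microdilution in RPMI 1640 with a final inoculum of 10^3 CFU/mL, incubated 48 h at 37 °C. The endpoint was the lowest concentration giving visually complete (100%) growth inhibition.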
# [2] = design: method as in PMID 30274224; conditions: cited from earlier work
# [3] = test system: S. aureus ATCC 29213 biofilm; assay: biofilm inhibition assay (crystal violet); type: cell-based, Staphylococcus aureus; conditions: ≥80% inhibition of biofilm formation
# Method: (§3) The ability of compounds 1f, 1g, and 1h to inhibit biofilm growth and destroy the matured biofilm of S. aureus ATCC 29213 was investigated. The inhibitory activity was studied by the method with crystal violet. The activity to disrupt matured biofilm was evaluated as a decrease of metabolic activity using the MTT assay.
# The plates were inoculated by inoculum of S. aureus ATCC 29213 grown in TSB + 2% glucose to exponential phase. Before the inoculation of the plate, the original inoculum was diluted to 1 McFarland and then 1:100 in fresh TSB + 2% glucose, to reach the final concentrations in the wells of […]. […] The plates were incubated at 37 °C for 48 h. After incubation, the contents of the wells were removed, and the plates were washed three times by sterile PBS. After drying, 125 μL of 0.5% crystal violet was added to each well and the plates were stained at room temperature for 20 min. Then the dye was removed, and the plates were washed three times by sterile PBS. The colored biofilm was detached from the wells using 33% solution of acetic acid. The absorbance at 595 nm was measured. As a blank, a non-inoculated plate treated in the same way was used. […] The minimum biofilm inhibitory concentration was the lowest concentration of the compounds, which inhibited the growth of 80% bacteria compared to the growth control. The experiment was made in duplicate and repeated at least three times.
# [4] = test system: S. aureus ATCC 29213 biofilm; assay: biofilm susceptibility / eradication of preformed biofilm (MTT); type: cell-based, Staphylococcus aureus; conditions: 80% reduction of metabolic activity of preformed biofilm, 24 h
# Method: as §3
# Biofilms were grown as described above but without the presence of the compounds. After 48 h of incubation at 37 °C, the contents of the wells were removed, and the plates were washed three times by sterile PBS. After washing, 100 µL of tested compounds in CaMH were added to the wells. […] A growth control containing 2.5% of DMSO in CaMH was included. The plates were incubated at 37 °C for 24 h, then the solutions of compounds were removed, and the plates were gently washed three times by sterile PBS. Bacterial viability was analyzed using 100 µL of 0.05 mg/mL MTT (3-(4,5-dimethylthiazol-2-yl)- 2,5-diphenyltetrazolium bromide) in PBS in each well. The plates with MTT were incubated at 37 °C for 1–2 h in darkness, until the blue formazan crystals appeared. MTT solution was removed and the plates were washed once by PBS. Crystals of formazan were dissolved using 17% sodium dodecysulphate in 40% dimethylformamid. The absorbance at 570 nm was measured and the percentage of eradication was counted according to the equation (3) % of eradication = 100 − OD570S/OD570C × 100 where OD570S is the absorbance of the sample at 570 nm and OD570C is the absorbance of the growth control at 570 nm. The minimum biofilm eradication concentration was the lowest concentration of the compound, which reduced the metabolic activity of the biofilm by 80% compared to the growth control. The experiment was made in duplicate and repeated at least three times.
compound,measurement,setting,value
"CCCCCCOc1cccc(NC(=O)OC(CN(CCC)CCC)CN2CCCC2)c1.Cl.Cl (centres unmarked) [1g, 1-[3-(dipropylammonio)-2-({[3-(hexyloxy)phenyl]carbamoyl}oxy)propyl]pyrrolidinium dichloride]",Log10 Difference in CFU/mL from Inoculum,"MRSA 63718; 1 × MIC, 4 h",0.00 log10 CFU/mL
same,Log10 Difference in CFU/mL from Inoculum,"MRSA 63718; 1 × MIC, 6 h",0.66 log10 CFU/mL
same,Log10 Difference in CFU/mL from Inoculum,"MRSA 63718; 1 × MIC, 8 h",1.00 log10 CFU/mL
same,Log10 Difference in CFU/mL from Inoculum,"MRSA 63718; 1 × MIC, 24 h",1.99 log10 CFU/mL
same,Log10 Difference in CFU/mL from Inoculum,"MRSA 63718; 2 × MIC, 4 h",−1.33 log10 CFU/mL
same,Log10 Difference in CFU/mL from Inoculum,"MRSA 63718; 2 × MIC, 6 h",−0.93 log10 CFU/mL
same,Log10 Difference in CFU/mL from Inoculum,"MRSA 63718; 2 × MIC, 8 h",−0.26 log10 CFU/mL
same,Log10 Difference in CFU/mL from Inoculum,"MRSA 63718; 2 × MIC, 24 h",1.29 log10 CFU/mL
same,Log10 Difference in CFU/mL from Inoculum,"MRSA 63718; 4 × MIC, 4 h",−2.57 * log10 CFU/mL
same,Log10 Difference in CFU/mL from Inoculum,"MRSA 63718; 4 × MIC, 6 h",−1.99 * log10 CFU/mL
same,Log10 Difference in CFU/mL from Inoculum,"MRSA 63718; 4 × MIC, 8 h",−1.26 * log10 CFU/mL
same,Log10 Difference in CFU/mL from Inoculum,"MRSA 63718; 4 × MIC, 24 h",1.21 log10 CFU/mL
same,Log10 Difference in CFU/mL from Inoculum,"S. aureus ATCC 29213; 1 × MIC, 4 h",1.54 log10 CFU/mL
same,Log10 Difference in CFU/mL from Inoculum,"S. aureus ATCC 29213; 1 × MIC, 6 h",1.98 log10 CFU/mL
same,Log10 Difference in CFU/mL from Inoculum,"S. aureus ATCC 29213; 1 × MIC, 8 h",2.33 log10 CFU/mL
same,Log10 Difference in CFU/mL from Inoculum,"S. aureus ATCC 29213; 1 × MIC, 24 h",2.74 log10 CFU/mL
same,Log10 Difference in CFU/mL from Inoculum,"S. aureus ATCC 29213; 2 × MIC, 4 h",0.87 log10 CFU/mL
same,Log10 Difference in CFU/mL from Inoculum,"S. aureus ATCC 29213; 2 × MIC, 6 h",0.98 log10 CFU/mL
same,Log10 Difference in CFU/mL from Inoculum,"S. aureus ATCC 29213; 2 × MIC, 8 h",1.26 log10 CFU/mL
same,Log10 Difference in CFU/mL from Inoculum,"S. aureus ATCC 29213; 2 × MIC, 24 h",2.24 log10 CFU/mL
same,Log10 Difference in CFU/mL from Inoculum,"S. aureus ATCC 29213; 4 × MIC, 4 h",−0.26 log10 CFU/mL
same,Log10 Difference in CFU/mL from Inoculum,"S. aureus ATCC 29213; 4 × MIC, 6 h",−0.04 log10 CFU/mL
same,Log10 Difference in CFU/mL from Inoculum,"S. aureus ATCC 29213; 4 × MIC, 8 h",0.10 log10 CFU/mL
same,Log10 Difference in CFU/mL from Inoculum,"S. aureus ATCC 29213; 4 × MIC, 24 h",1.85 log10 CFU/mL
same,MIC,[1],16 µg/mL and 30.8 µM
same,"γ (surface tension, relative surface activity)",[2],0.06105 N/m
same,minimum biofilm inhibitory concentration relative to MIC against planktonic cells,[3],equal to minimum inhibitory concentration against planktonic cells
same,MBIC80 (minimum biofilm inhibitory concentration),[3]; 48 h,8 µg/mL
same,MBEC80 (minimum biofilm eradication concentration),[4],16 µg/mL
